pEC50, pIC50: −log10 of the molar value. ≈ marks a conversion by molar mass, not a printed value.
Experiments:
Hepatitis B virus = assay: Antiviral activity against HBV; type: functional, organism-based
Chikungunya virus [1] = assay: Antiviral activity against CHIKV; type: functional, organism-based
[2] = Selectivity index, ratio of CC50 for cytotoxicity against human Ava5 cells to EC50 for antiviral activity against HCV; type: toxicity, cell-based; conditions: read-out: Ratio CC50/EC50
Semliki Forest virus = assay: Antiviral activity against SFV; type: functional, organism-based
Chikungunya virus [3] = assay: Antiviral activity against CHIKV virus by CHIKV-Rluc assay; type: functional, organism-based
Human alphaherpesvirus 1 [4] = assay: Antiviral activity against Herpes simplex virus 1 assessed as inhibition rate at 10 ug/ml relative to control; type: functional
Human alphaherpesvirus 1 [5] = assay: Antiviral activity against Herpes simplex virus 1 assessed as inhibition rate at 2.5 ug/ml relative to control; type: functional
Human alphaherpesvirus 1 [6] = assay: Antiviral activity against Herpes simplex virus 1; type: functional, organism-based
Human alphaherpesvirus 1 [7] = assay: Antiviral activity against Herpes simplex virus 1 assessed as inhibition rate at 5 ug/ml relative to control; type: functional
Human alphaherpesvirus 2 = assay: Antiviral activity against Herpes simplex virus 2; type: functional, organism-based
Herpesviridae sp. = assay: Antiviral activity against Kaposi's sarcoma-associated herpesvirus; type: functional, organism-based

SMILES: COc1c(OC/C=C(\C)CCC=C(C)C)ccc2ccc(=O)oc12 [COLLININ]
- IC50 (Hepatitis B virus): 17.1 µg/mL (≈ 52.1 µM)

SMILES: CCN(CC)c1ccc2cc(C(=O)c3ccsc3)c(=O)oc2c1
- pIC50 (Chikungunya virus [1]): 5.29

SMILES: COc1cc(NCc2cc3ccccc3oc2=O)cc(OC)c1OC
- selectivity ratio [2]: 10

SMILES: CCN(CC)c1ccc2cc(-c3nc4ccccc4n3C)c(=O)oc2c1
- pIC50 (Semliki Forest virus): 6.40
- pIC50 (Chikungunya virus [3]): 5.19

SMILES: CC(=O)O[C@@H]1CC[C@]2(C)[C@H](CC[C@](C)(O)[C@@H]2COc2ccc3ccc(=O)oc3c2)C1(C)C
- inhibition at 10 µg/mL (Human alphaherpesvirus 1 [4]): 98%
- inhibition at 2.5 µg/mL (Human alphaherpesvirus 1 [5]): 65%
- EC50 (Human alphaherpesvirus 1 [6]): 38 µg/mL (≈ 85.9 µM)
- inhibition at 5 µg/mL (Human alphaherpesvirus 1 [7]): 80%

SMILES: COC1=CC(=O)c2cc(C)cc(-c3c(OC)cc(OC)c4ccc(=O)oc34)c2C1=O
- EC50 (Human alphaherpesvirus 2): 10 µg/mL (≈ 24.6 µM)
- EC50 (Human alphaherpesvirus 1 [6]): 10 µg/mL (≈ 24.6 µM)

SMILES: C=CC(C)(C)c1cc2cc3c(cc2oc1=O)OC(C(C)(C)OC(C)=O)C3 (configuration not stated) [RUTAMARIN]
- pEC50 (Herpesviridae sp.): 5.79

Source: ChEMBL document CHEMBL5257032, “Therapeutic potential of coumarins as antiviral agents” (Eur J Med Chem, 2016)
